Key:
Canine cardiac lipases = assay: Myocardial lipase assay; format: biochemical; conditions: for Lipase % Inh. at 100 μM: 100 μM compound, tested in duplicate; for IC50: triolein emulsion, Tris pH 6.8, read-out: Lipase I50
Protocol: All compounds were dissolved in DMSO (final concentration 3.0%) and tested in duplicate at a concentration of 100 μM. Canine cardiac lipases were obtained by extracting washed heart membranes with buffer plus heparine and a small amount of Triton X-100 detergent. Because these enzymes are only active at an oil-water interface, the enzyme reaction is run in an oil-water emulsion that contains triolein substrate, Tris buffer (50mM, pH 6.8) and a small amount of bovine serum albumin (0.5%) added to stabilize the emulsion. A small amount of tritiated triolein was added to the unlabelled triolein substrate. Tritium-labelled oleic acid released by the lipases was extracted into hexane, separated from unreacted triolein and counted in a scintillation counter. Inhibitory agents reduce the amount of radioactivity appearing in the free fatty acid fraction isolated in the extraction procedure.

rat adipocyte lipolysis = assay: Rat adipocyte assay (epinephrine-stimulated lipolysis, glycerol release); format: cell-based; conditions: for IC50: epinephrine 3 μM plus methylisobutylxanthine 10 μM, 1 hour at 37° C., read-out: Adipocyte I50; for Adipocyte % Inhib. at 3 μM: 3 μM compound; for inhibition at 100 µM: read-out: Adipocyte % Inhib. at 100 μM
Protocol: Abdominal fat pads were removed from male rats weighing 200-250 grams and placed in Krebs-bicarbonate buffer gassed with 95% O2 /5% CO2. The fat pads were digested with collagenase for 1 hour at 37° C., washed twice with Krebs-bicarbonate buffer and distributed among a set of 20 ml plastic counting vials. Two such vials received only buffer and cells (4 ml) but no agonists or antagonists. The remaining vials received epinephrine (3 μM) plus the phosphodiesterase inhibitor methylisobutylxanthine (10 μM). Test compounds were dissolved in DMSO or water to a concentration of […] and […] was added to the buffer plus cells in the counting vials. The final compound concentration for routine screening was 200 μM (final concentration of DMSO=1%).
The cells were incubated for 1 hour at 37° C. under a 95% O2 /5% CO2 atmosphere. The incubation was stopped by placing the vials in crushed ice. The cells and medium were transferred to test tubes, centrifuged and the cell layer removed by aspiration. The aqueous phase was assayed for glycerol using the enzyme glycerol dehydrogenase.
The glycerol dehydrogenase assay for glycerol depends on the enzyme catalyzed conversion of glycerol to glyceraldehyde and NAD to NADH. The assay can detect as little as 5-10 nanomoles of glycerol. The aqueous phase, following removal of cells, usually contained about 50 to 80 nanomoles of glycerol per 300 μl of assayed sample if no inhibitory activity was present. Samples from the control tubes (no agonist) usually contained 0-5 nanomoles of glycerol per 300 μl of sample.

[1] = Rattus norvegicus, Adipocyte, 100 μM compound

Row | Compound | Lipase % Inh. at 100 μM (Canine cardiac lipases) | Adipocyte % Inhib. at 3 μM (rat adipocyte lipolysis) | also measured
1 | 2-methoxyphenyl-8-quinoyl carbamate [No. 5] | 72% | – | IC50 (rat adipocyte lipolysis): 5.8 µM
2 | 2-methyl-8-quinolyl carbanilate [No. 19] | – | – | IC50 (Canine cardiac lipases): 48 µM; IC50 (rat adipocyte lipolysis): 10 µM
3 | 2-methyl-8-quinolyl-4-bromo carbanilate [No. 21] | 69% | 28% | –
4 | 2-methyl-8-quinolyl-4-methoxy carbanilate [No. 20] | – | 5% | IC50 (Canine cardiac lipases): 80 µM
5 | 4-Methoxyphenyl-8-quinolyl Urea [No. 6] | 70% | – | Adipocyte % Inhib. at 100 μM (rat adipocyte lipolysis; 100 μM compound): 98%
6 | 5,7-dichloro-8-quinolyl carbanilate [No. 24] | 68% | – | IC50 (rat adipocyte lipolysis): 0.2 µM
7 | 5-chloro-8-quinolyl carbanilate [No. 22] | 68% | 29% | –
8 | 8-(4-Methoxyphenylcarbamoyl)-quinolin)-5-sulfonic acid, Triethylamine [No. 23] | 76% | – | IC50 (rat adipocyte lipolysis): 35 µM
9 | 8-Quinolyl-4-methoxy Acetanilide [No. 25] | 74% | – | IC50 (rat adipocyte lipolysis): 35 µM
10 | 8-quinolyl-2,4-dimethoxy carbanilate [No. 15] | 64% | 84% | –
11 | 8-quinolyl-2,5-dimethoxy carbanilate [No. 16] | 7% | 40% | –
12 | 8-quinolyl-2-chloro carbanilate [No. 10] | – | – | IC50 (Canine cardiac lipases): 200 µM; Adipocyte % Inhib. at 200 μM (rat adipocyte lipolysis; 200 μM compound): 44%
13 | 8-quinolyl-2-methyl carbanilate [No. 13] | 1% | – | –
14 | 8-quinolyl-3-chloro carbanilate [No. 9] | – | – | IC50 (Canine cardiac lipases): 7300 µM; Adipocyte % Inhib. at 200 μM (rat adipocyte lipolysis; 200 μM compound): 4%
15 | 8-quinolyl-3-methyl carbanilate [No. 12] | 41% | 5% | –
16 | 8-quinolyl-3-trifluoromethyl carbanilate [No. 14] | 63% | 76% | –

Row | Compound | Lipase % Inh. at 100 μM (Canine cardiac lipases) | Adipocyte % Inhib. at 3 μM (rat adipocyte lipolysis) | also measured
17 | 8-quinolyl-4-bromo carbanilate [No. 17] | 56% | 7% | –
18 | 8-quinolyl-4-chloro carbanilate [No. 8] | – | – | IC50 (Canine cardiac lipases): 20 µM; IC50 (rat adipocyte lipolysis): 30 µM
19 | 8-quinolyl-4-methoxy benzyl carbamate [No. 26] | 68% | 5% | –
20 | 8-quinolyl-4-methoxy phenethyl carbamate [No. 27] | 69% | 4% | –
21 | 8-quinolyl-4-methyl carbanilate [No. 11] | 58% | 52% | –
22 | 8-quinolyl-carbanilate [No. 18] | 65% | – | IC50 (rat adipocyte lipolysis): 0.2 µM
23 | 8-quninolyl-4-carbethoxy carbanilate [No. 7] | 75% | – | Adipocyte % Inhib. at 30 μM (rat adipocyte lipolysis; 30 μM compound): 3%
24 | COc1ccc(NC(=O)Oc2cccc3cccnc23)cc1 [No. 1, 8-Quinolyl-4-Methoxy Carbanilate] | – | – | IC50 (Canine cardiac lipases): 17 µM
25 | COc1ccccc1NC(=O)Oc1cccc2cccnc12 [No. 2, 8-quinolyl-2-methoxy carbanilate] | – | – | IC50 (Canine cardiac lipases): 40 µM
26 | COc1cccc(NC(=O)Oc2cccc3cccnc23)c1 [No. 3, 8-quinolyl-3-methoxy carbanilate] | – | – | IC50 (Canine cardiac lipases): 18 µM
27 | COc1ccc(CC(=O)Oc2cccc3cccnc23)cc1 [No. 30, 8-Quinoloyl-4-methoxyphenylAcetate] | – | – | inhibition at 100 µM (rat adipocyte lipolysis; [1]): 74%
28 | COc1ccc(C(=O)Oc2cccc3cccnc23)cc1 [No. 31, 8-quinolyl-4-methoxy benzoate] | 13% | – | inhibition at 200 µM (rat adipocyte lipolysis; Rattus norvegicus, Adipocyte, 200 μM compound, read-out: Adipocyte % Inhib. at 200 μM): 49%
29 | COc1ccc(NC(=O)COc2cccc3cccnc23)cc1 [compound 25] | 7% | – | inhibition at 100 µM (rat adipocyte lipolysis; [1]): 26%
30 | (R)8-quinolyl alpha-methyl benzyl carbamate [No. 29] | 56% | – | Adipocyte % Inhib. at 200 μM (rat adipocyte lipolysis; 200 μM compound): 28%
31 | (S)8-quinolyl alpha-methyl benzyl carbamate [No. 28] | 83% | – | Adipocyte % Inhib. at 200 μM (rat adipocyte lipolysis; 200 μM compound): 14%

From patent publication US4530931A, “8-Quinoline carbanilates for the inhibition of lipolysis” (priority 1984, dated 1985)
